This assay has as its target T1, BRM (Homo sapiens, UniProt P51531).
T1 construct: Western Blot Screen of BRM Degradation in SW1573 Cells; endogenous in cells; host or cells: SW1573 cells
Kind of assay: BRM degradation (Dmax and DC50) in SW1573 cells, Western blot screen / In-Cell Western screen. The assay is classed as cell-based. The note with it: overnight (18-20 hours) treatment; for Dmax: read-out: Dmax (%)** (% degraded). In a few lines: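 Dmax and DC50 were derived from BRM levels normalised to an alpha-tubulin control, measured by chemiluminescent Western blotting of lysates or by PFA-fixed In-Cell Western on LI-COR Odyssey. SW1573 cells received compound overnight (18–20 h, 0.1% DMSO final).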
For orientation: In western blotting, separated proteins are transferred to a membrane and probed.

T1 sequence (P51531 whole entry): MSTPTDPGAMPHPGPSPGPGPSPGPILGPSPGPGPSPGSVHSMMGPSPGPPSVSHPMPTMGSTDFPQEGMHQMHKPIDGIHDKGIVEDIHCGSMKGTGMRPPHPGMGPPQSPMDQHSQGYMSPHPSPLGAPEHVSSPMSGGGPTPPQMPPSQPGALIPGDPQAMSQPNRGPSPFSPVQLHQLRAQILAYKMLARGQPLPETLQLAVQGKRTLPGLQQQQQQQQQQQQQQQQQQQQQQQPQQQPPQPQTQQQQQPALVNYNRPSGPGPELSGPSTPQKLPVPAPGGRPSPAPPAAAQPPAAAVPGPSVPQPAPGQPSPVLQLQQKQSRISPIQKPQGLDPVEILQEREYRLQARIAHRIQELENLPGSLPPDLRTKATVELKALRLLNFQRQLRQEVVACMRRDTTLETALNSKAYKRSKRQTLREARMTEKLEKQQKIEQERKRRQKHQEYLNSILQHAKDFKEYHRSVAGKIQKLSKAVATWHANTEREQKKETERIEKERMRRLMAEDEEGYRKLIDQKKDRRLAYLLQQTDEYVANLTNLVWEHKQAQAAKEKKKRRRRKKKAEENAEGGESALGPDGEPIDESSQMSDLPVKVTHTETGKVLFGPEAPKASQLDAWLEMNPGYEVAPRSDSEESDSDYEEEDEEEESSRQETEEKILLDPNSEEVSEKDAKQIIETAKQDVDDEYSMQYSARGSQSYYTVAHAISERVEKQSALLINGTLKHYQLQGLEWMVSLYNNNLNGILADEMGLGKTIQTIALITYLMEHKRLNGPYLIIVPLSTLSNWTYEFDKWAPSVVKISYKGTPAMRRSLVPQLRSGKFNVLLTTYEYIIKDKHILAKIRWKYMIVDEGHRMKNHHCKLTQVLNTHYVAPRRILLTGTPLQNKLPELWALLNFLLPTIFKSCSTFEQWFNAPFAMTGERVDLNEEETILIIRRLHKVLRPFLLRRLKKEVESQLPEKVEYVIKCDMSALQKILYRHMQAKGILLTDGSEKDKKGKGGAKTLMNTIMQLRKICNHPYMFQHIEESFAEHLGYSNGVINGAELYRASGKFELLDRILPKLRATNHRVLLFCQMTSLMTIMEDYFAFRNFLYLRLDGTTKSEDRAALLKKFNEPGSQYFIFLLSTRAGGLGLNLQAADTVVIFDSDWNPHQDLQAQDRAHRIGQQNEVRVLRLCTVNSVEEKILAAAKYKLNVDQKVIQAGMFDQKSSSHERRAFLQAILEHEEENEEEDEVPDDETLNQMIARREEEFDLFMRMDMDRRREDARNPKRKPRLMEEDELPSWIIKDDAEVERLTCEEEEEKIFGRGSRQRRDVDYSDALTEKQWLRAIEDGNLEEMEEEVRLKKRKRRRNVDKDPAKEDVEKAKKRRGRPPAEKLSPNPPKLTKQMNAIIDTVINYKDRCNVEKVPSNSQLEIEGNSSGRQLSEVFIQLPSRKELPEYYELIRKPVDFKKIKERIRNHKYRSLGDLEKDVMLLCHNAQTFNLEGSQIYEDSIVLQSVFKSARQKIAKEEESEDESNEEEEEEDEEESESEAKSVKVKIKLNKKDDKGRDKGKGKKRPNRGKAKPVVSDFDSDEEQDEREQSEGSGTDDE

What is called DC50 is the midpoint of the concentration-degradation curve. The low end stands for a more potent degrader, the high end for a less potent degrader. Usually Dmax stands for the greatest extent of degradation seen. As to `Cc1ncsc1-c1ccc([C@H](C)NC(=O)[C@@H]2C[C@@H](O)CN2C(=O)C(c2cc(N3CCC(OC(=O)N4CCC(Oc5cc(N6CCN(c7cc(-c8ccccc8O)nnc7N)CC6)ccn5)CC4)CC3)no2)C(C)C)cc1` (stereo partly drawn) [Compound 144, 1-(5-{1-[(2S,4R)-4-hydroxy-2-{[(1S)-1-[4-(4-methyl-1,3-thiazol-5-yl)phenyl]ethyl]carbamoyl}pyrrolidin-1-yl]-3-methyl-1-oxobutan-2-yl}-1,2-oxazol-3-yl)piperidin-4-yl 4-[(4-{4-[3-amino-6-(2-hydroxyphenyl)pyridazin-4-yl]piperazin-1-yl}pyridin-2-yl)oxy]piperidine-1-carboxylate], the DC50 lay in the range of 2.5 to 10 nM and the Dmax is above 75%.

For `Cc1ncsc1-c1ccc([C@H](C)NC(=O)[C@@H]2C[C@@H](O)CN2C(=O)C(c2cc(N3CCC(OC(=O)N4CCC(O[C@H]5C[C@H](Oc6cc(N7CCN(c8cc(-c9ccccc9O)nnc8N)CC7)ccn6)C5)CC4)CC3)no2)C(C)C)cc1` (stereo partly drawn) [Compound 145, 1-(5-{1-[(2S,4R)-4-hydroxy-2-{[(1S)-1-[4-(4-methyl-1,3-thiazol-5-yl)phenyl]ethyl]carbamoyl}pyrrolidin-1-yl]-3-methyl-1-oxobutan-2-yl}-1,2-oxazol-3-yl)piperidin-4-yl 4-[(1r,3r)-3-[(4-{4-[3-amino-6-(2-hydroxyphenyl)pyridazin-4-yl]piperazin-1-yl}pyridin-2-yl)oxy]cyclobutoxy]piperidine-1-carboxylate], the DC50 is 2.5 to 10 nM and the Dmax was above 75%.

With `CC(C)[C@@H](C(=O)N1C[C@H](O)C[C@H]1C(=O)N[C@@H](C)c1ccc(C#N)cc1)c1cc(N2CCC(CN3CC[C@H](Oc4cc(N5C6CCC5CN(c5cc(-c7ccccc7O)nnc5N)C6)ccn4)C(F)(F)C3)CC2)no1` [Compound 146, (2S,4R)-1-[(2R)-2-[3-(4-{[(4S)-4-[(4-{3-[3-amino-6-(2-hydroxyphenyl)pyridazin-4-yl]-3,8-diazabicyclo[3.2.1]octan-8-yl}pyridin-2-yl)oxy]-3,3-difluoropiperidin-1-yl]methyl}piperidin-1-yl)-1,2-oxazol-5-yl]-3-methylbutanoyl]-N-[(1S)-1-(4-cyanophenyl)ethyl]-4-hydroxypyrrolidine-2-carboxamide], the DC50 is 10 to 30 nM and the Dmax is above 75%.

On to `CC(C)[C@@H](C(=O)N1C[C@H](O)C[C@H]1C(=O)N[C@@H](C)c1ccc(C#N)cc1)c1cc(N2CCC(CN3CC[C@@H](Oc4cc(N5C6CCC5CN(c5cc(-c7ccccc7O)nnc5N)C6)ccn4)C(F)(F)C3)CC2)no1` [Compound 147, (2S,4R)-1-[(2R)-2-[3-(4-{[(4R)-4-[(4-{3-[3-amino-6-(2-hydroxyphenyl)pyridazin-4-yl]-3,8-diazabicyclo[3.2.1]octan-8-yl}pyridin-2-yl)oxy]-3,3-difluoropiperidin-1-yl]methyl}piperidin-1-yl)-1,2-oxazol-5-yl]-3-methylbutanoyl]-N-[(1S)-1-(4-cyanophenyl)ethyl]-4-hydroxypyrrolidine-2-carboxamide], for which the DC50 lay within 2.5 to 10 nM and the Dmax was above 75%.

In the case of `Cc1ncsc1-c1ccc([C@H](C)NC(=O)[C@@H]2C[C@@H](O)CN2C(=O)[C@@H](c2cc(OCCN3CCN(CCOc4cc(N5C6CCC5CN(c5cc(-c7cc(F)ccc7O)nnc5N)C6)ccn4)[C@H](C)C3)no2)C(C)C)cc1` [Compound 148, (2S,4R)-1-[(2R)-2-(3-{2-[(3R)-4-{2-[(4-{3-[3-amino-6-(5-fluoro-2-hydroxyphenyl)pyridazin-4-yl]-3,8-diazabicyclo[3.2.1]octan-8-yl}pyridin-2-yl)oxy]ethyl}-3-methylpiperazin-1-yl]ethoxy}-1,2-oxazol-5-yl)-3-methylbutanoyl]-4-hydroxy-N-[(1S)-1-[4-(4-methyl-1,3-thiazol-5-yl)phenyl]ethyl]pyrrolidine-2-carboxamide], the DC50 is below 2.5 nM and the Dmax is above 75%.

Regarding `Cc1ncsc1-c1ccc([C@H](C)NC(=O)[C@@H]2C[C@@H](O)CN2C(=O)[C@@H](c2cc(OCCN3CCN(CCOc4cc(N5C6CCC5CN(c5cc(-c7ncccc7O)nnc5N)C6)ccn4)[C@H](C)C3)no2)C(C)C)cc1` [Compound 149, (2S,4R)-1-[(2R)-2-(3-{2-[(3R)-4-{2-[(4-{3-[3-amino-6-(3-hydroxypyridin-2-yl)pyridazin-4-yl]-3,8-diazabicyclo[3.2.1]octan-8-yl}pyridin-2-yl)oxy]ethyl}-3-methylpiperazin-1-yl]ethoxy}-1,2-oxazol-5-yl)-3-methylbutanoyl]-4-hydroxy-N-[(1S)-1-[4-(4-methyl-1,3-thiazol-5-yl)phenyl]ethyl]pyrrolidine-2-carboxamide], the DC50 is at least 30 nM.

Compound `CC(C)[C@H](C(=O)N1C[C@H](O)C[C@H]1C(=O)N[C@@H](C)c1ccc(C#N)cc1)c1cc(N2CCC(OCCN3CCC(Oc4cc(N5C6CCC5CN(c5cc(-c7ccccc7O)nnc5N)C6)ccn4)CC3)CC2)no1` [Compound 150, (2S,4R)-1-[(2S)-2-{3-[4-(2-{4-[(4-{3-[3-amino-6-(2-hydroxyphenyl)pyridazin-4-yl]-3,8-diazabicyclo[3.2.1]octan-8-yl}pyridin-2-yl)oxy]piperidin-1-yl}ethoxy)piperidin-1-yl]-1,2-oxazol-5-yl}-3-methylbutanoyl]-N-[(1S)-1-(4-cyanophenyl)ethyl]-4-hydroxypyrrolidine-2-carboxamide] showed a DC50 of at least 30 nM.

As to `CC(C)[C@@H](C(=O)N1C[C@H](O)C[C@H]1C(=O)N[C@@H](C)c1ccc(C#N)cc1)c1cc(N2CCC(OCCN3CCC(Oc4cc(N5C6CCC5CN(c5cc(-c7ccccc7O)nnc5N)C6)ccn4)CC3)CC2)no1` [Compound 151, (2S,4R)-1-[(2R)-2-{3-[4-(2-{4-[(4-{3-[3-amino-6-(2-hydroxyphenyl)pyridazin-4-yl]-3,8-diazabicyclo[3.2.1]octan-8-yl}pyridin-2-yl)oxy]piperidin-1-yl}ethoxy)piperidin-1-yl]-1,2-oxazol-5-yl}-3-methylbutanoyl]-N-[(1S)-1-(4-cyanophenyl)ethyl]-4-hydroxypyrrolidine-2-carboxamide], the DC50 lay within 2.5 to 10 nM and the greatest degradation seen (Dmax) was above 75%.

Consider `CC(C)[C@H](C(=O)N1C[C@H](O)C[C@H]1C(=O)N[C@@H](C)c1ccc(C#N)cc1)c1cc(N2CCC(OCCN3CCC(O[C@H]4C[C@H](Oc5cc(N6C7CCC6CN(c6cc(-c8ccccc8O)nnc6N)C7)ccn5)C4)CC3)CC2)no1` [Compound 152, (2S,4R)-N-[(1S)-1-(4-cyanophenyl)ethyl]-4-hydroxy-1-[(2S)-3-methyl-2-{3-[4-(2-{4-[(1r,3r)-3-[(4-{3-[3-amino-6-(2-hydroxyphenyl)pyridazin-4-yl]-3,8-diazabicyclo[3.2.1]octan-8-yl}pyridin-2-yl)oxy]cyclobutoxy]piperidin-1-yl}ethoxy)piperidin-1-yl]-1,2-oxazol-5-yl}butanoyl]pyrrolidine-2-carboxamide], for which the DC50 is at least 30 nM.

With `CC(C)[C@@H](C(=O)N1C[C@H](O)C[C@H]1C(=O)N[C@@H](C)c1ccc(C#N)cc1)c1cc(N2CCC(OCCN3CCC(O[C@H]4C[C@H](Oc5cc(N6C7CCC6CN(c6cc(-c8ccccc8O)nnc6N)C7)ccn5)C4)CC3)CC2)no1` [Compound 153, (2S,4R)-N-[(1S)-1-(4-cyanophenyl)ethyl]-4-hydroxy-1-[(2R)-3-methyl-2-{3-[4-(2-{4-[(1r,3r)-3-[(4-{3-[3-amino-6-(2-hydroxyphenyl)pyridazin-4-yl]-3,8-diazabicyclo[3.2.1]octan-8-yl}pyridin-2-yl)oxy]cyclobutoxy]piperidin-1-yl}ethoxy)piperidin-1-yl]-1,2-oxazol-5-yl}butanoyl]pyrrolidine-2-carboxamide], the DC50 was below 2.5 nM and the maximal degradation (Dmax) was above 75%.

Turning to `CC(C)[C@H](C(=O)N1C[C@H](O)C[C@H]1C(=O)N[C@@H](C)c1ccc(C#N)cc1)c1cc(N2CCC(OCCN3CCC(Oc4cc(N5CCN(c6cc(-c7ccccc7O)nnc6N)CC5)ccn4)CC3)CC2)no1` [Compound 154, (2S,4R)-1-[(2S)-2-{3-[4-(2-{4-[(4-{4-[3-amino-6-(2-hydroxyphenyl)pyridazin-4-yl]piperazin-1-yl}pyridin-2-yl)oxy]piperidin-1-yl}ethoxy)piperidin-1-yl]-1,2-oxazol-5-yl}-3-methylbutanoyl]-N-[(1S)-1-(4-cyanophenyl)ethyl]-4-hydroxypyrrolidine-2-carboxamide], the DC50 was at least 30 nM.

As to `CC(C)[C@@H](C(=O)N1C[C@H](O)C[C@H]1C(=O)N[C@@H](C)c1ccc(C#N)cc1)c1cc(N2CCC(OCCN3CCC(Oc4cc(N5CCN(c6cc(-c7ccccc7O)nnc6N)CC5)ccn4)CC3)CC2)no1` [Compound 155, (2S,4R)-1-[(2R)-2-{3-[4-(2-{4-[(4-{4-[3-amino-6-(2-hydroxyphenyl)pyridazin-4-yl]piperazin-1-yl}pyridin-2-yl)oxy]piperidin-1-yl}ethoxy)piperidin-1-yl]-1,2-oxazol-5-yl}-3-methylbutanoyl]-N-[(1S)-1-(4-cyanophenyl)ethyl]-4-hydroxypyrrolidine-2-carboxamide], the DC50 is 10 to 30 nM and the Dmax is above 75%.

For `CC(C)[C@@H](C(=O)N1C[C@H](O)C[C@H]1C(=O)N[C@@H](C)c1ccc(C#N)cc1)c1cc(N2CCC(CN3CC[C@H](Oc4cc(N5C6CCC5CN(c5cc(-c7ccccc7O)nnc5N)C6)ccn4)[C@H](F)C3)CC2)no1` [Compound 156, (2S,4R)-1-[(2R)-2-[3-(4-{[(3R,4S)-4-[(4-{3-[3-amino-6-(2-hydroxyphenyl)pyridazin-4-yl]-3,8-diazabicyclo[3.2.1]octan-8-yl}pyridin-2-yl)oxy]-3-fluoropiperidin-1-yl]methyl}piperidin-1-yl)-1,2-oxazol-5-yl]-3-methylbutanoyl]-N-[(1S)-1-(4-cyanophenyl)ethyl]-4-hydroxypyrrolidine-2-carboxamide], the DC50 was below 2.5 nM and the Dmax was above 75%.
